Test results from PubChem BioAssay AID256 (DTP/NCI, 2004).
Several values for one entry are separate records, joined by “and”; a condition that tells them apart may be missing. Equal values may be shown once. Toxic doses and inconclusive results are not listed. The calls were made as follows: active = survival T/C of 150% or more; inactive = T/C below 125% in these data.

Test system: CD2F1 mice, L1210 leukemia ip, survival T/C
Test: NCI In Vivo Anticancer Drug Screen. Data for tumor model L1210 Leukemia (intraperitoneal) in CD2F1 (CDF1) mice
Settings: higher = longer survival
Procedure, shortened: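 Transplantable tumor in mice; compound-treated vs vehicle-treated groups. Read-out = treated/control ratio of the measured endpoint.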

[1] = endpoint: mean survival time, dose: 100.0 mg/kg/injection, schedule: Q04DX003 (ip), vehicle: saline with Tween-80
[2] = endpoint: mean survival time, dose: 100.0 mg/kg/injection, schedule: Q01DX009 (ip), vehicle: saline
[3] = endpoint: mean survival time, dose: 200.0 mg/kg/injection, schedule: Q01DX009 (ip), vehicle: saline
[4] = endpoint: mean survival time, dose: 100.0 mg/kg/injection, schedule: Q01DX009 (ip), vehicle: saline with Tween-80
[5] = endpoint: mean survival time, dose: 200.0 mg/kg/injection, schedule: Q01DX009 (ip), vehicle: saline with Tween-80
[6] = endpoint: mean survival time, dose: 200.0 mg/kg/injection, schedule: Q04DX003 (ip), vehicle: saline with Tween-80
[7] = endpoint: mean survival time, dose: 400.0 mg/kg/injection, schedule: Q01DX009 (ip), vehicle: saline with Tween-80
[8] = endpoint: mean survival time, dose: 400.0 mg/kg/injection, schedule: Q04DX003 (ip), vehicle: saline with Tween-80
[9] = endpoint: mean survival time, dose: 100.0 mg/kg/injection, schedule: Q01DX001 (ip), vehicle: saline with Tween-80
[10] = endpoint: mean survival time, dose: 200.0 mg/kg/injection, schedule: Q01DX001 (ip), vehicle: saline with Tween-80
[11] = endpoint: mean survival time, dose: 400.0 mg/kg/injection, schedule: Q01DX001 (ip), vehicle: saline with Tween-80
[12] = endpoint: mean survival time, dose: 100.0 mg/kg/injection, schedule: Q01DX001 (ip), vehicle: saline
[13] = endpoint: mean survival time, dose: 200.0 mg/kg/injection, schedule: Q01DX001 (ip), vehicle: saline
[14] = endpoint: mean survival time, dose: 400.0 mg/kg/injection, schedule: Q01DX001 (ip), vehicle: saline
[15] = endpoint: mean survival time, dose: 25.0 mg/kg/injection, schedule: Q04DX002 (ip), vehicle: saline with Tween-80
[16] = endpoint: mean survival time, dose: 50.0 mg/kg/injection, schedule: Q04DX002 (ip), vehicle: saline with Tween-80
[17] = endpoint: mean survival time, dose: 100.0 mg/kg/injection, schedule: Q04DX002 (ip), vehicle: saline with Tween-80
[18] = endpoint: mean survival time, dose: 100.0 mg/kg/injection, schedule: Q04DX003 (ip), vehicle: saline
[19] = endpoint: mean survival time, dose: 200.0 mg/kg/injection, schedule: Q04DX003 (ip), vehicle: saline
[20] = endpoint: mean survival time, dose: 400.0 mg/kg/injection, schedule: Q04DX003 (ip), vehicle: saline
[21] = endpoint: mean survival time, dose: 200.0 mg/kg/injection, schedule: Q04DX002 (ip), vehicle: saline with Tween-80
[22] = endpoint: mean survival time, dose: 400.0 mg/kg/injection, schedule: Q04DX002 (ip), vehicle: saline with Tween-80
[23] = endpoint: mean survival time, dose: 50.0 mg/kg/injection, schedule: Q01DX009 (ip), vehicle: saline
[24] = endpoint: mean survival time, dose: 400.0 mg/kg/injection, schedule: Q01DX009 (ip), vehicle: saline

Measured: T/C

C=C(OP(=O)(OC)OC)Sc1ccccc1C
inactive: endpoint: median survival time, dose: 0.38 mg/kg/injection, schedule: Q01DX009 (ip), vehicle: Klucel (hydroxypropylcellulose) (HPC) 101 % of control | endpoint: median survival time, dose: 0.75 mg/kg/injection, schedule: Q01DX009 (ip), vehicle: Klucel (hydroxypropylcellulose) (HPC) 101 % of control

COCC(O)CN1CCN(c2ccccc2C)CC1 (stereo not given)
inactive: [1] 93 % of control

CCN(CC)C(=O)c1ccccc1
inactive: [2] 98 % of control | [3] 98 % of control

S=c1[nH]nc2n1NC(c1ccccc1)=NN2
inactive: [4] 104 % of control | [1] 91 % of control | [5] 112 % of control | [6] 96 % of control | [7] 106 % of control | [8] 101 % of control

O=C1CCCC(=O)N1CCCCCCN1C(=O)CCCC1=O
inactive: [4] 94 % of control | [1] 100 % of control | [5] 108 % of control | [6] 101 % of control | [8] 101 % of control

c1cc2c(c(CC3CO3)c1CC1CO1)OCCOCCOCCOCCO2 (stereo not given)
inactive: endpoint: median survival time, dose: 12.5 mg/kg/injection, schedule: Q01DX009 (ip), vehicle: saline + alcohol 112 % of control and 97 % of control and 98 % of control | endpoint: median survival time, dose: 25.0 mg/kg/injection, schedule: Q01DX009 (ip), vehicle: saline + alcohol 123 % of control and 97 % of control and 98 % of control | endpoint: median survival time, dose: 50.0 mg/kg/injection, schedule: Q01DX009 (ip), vehicle: saline + alcohol 102 % of control and 104 % of control | endpoint: median survival time, dose: 100.0 mg/kg/injection, schedule: Q01DX009 (ip), vehicle: saline + alcohol 119 % of control and 93 % of control and 110 % of control | endpoint: median survival time, dose: 200.0 mg/kg/injection, schedule: Q01DX009 (ip), vehicle: saline + alcohol 120 % of control

COC1=C(OCc2ccccc2)C(=O)OC1C(O)CO (stereo not given)
inactive: [9] 98 % of control | [10] 97 % of control | [11] 93 % of control

CCCC(=O)Nc1ccc(O)cc1
inactive: endpoint: mean survival time, dose: 50.0 mg/kg/injection, schedule: Q01DX009 (ip), vehicle: Klucel (hydroxypropylcellulose) (HPC) 95 % of control | endpoint: mean survival time, dose: 100.0 mg/kg/injection, schedule: Q01DX009 (ip), vehicle: Klucel (hydroxypropylcellulose) (HPC) 91 % of control | endpoint: mean survival time, dose: 200.0 mg/kg/injection, schedule: Q01DX009 (ip), vehicle: Klucel (hydroxypropylcellulose) (HPC) 104 % of control | endpoint: mean survival time, dose: 400.0 mg/kg/injection, schedule: Q01DX009 (ip), vehicle: Klucel (hydroxypropylcellulose) (HPC) 123 % of control

CCCCCCCCCCC(CCCCCCCCCC)Cc1ccccc1
inactive: [12] 98 % of control | [13] 98 % of control | [14] 93 % of control

COc1ccc2c(c1)C1(C)CCC(=O)C(C)=C1CC2 (stereo not given)
inactive: [12] 105 % of control | [13] 98 % of control | [14] 98 % of control

SC1(SC2(S)CCCCC2)CCCCC1
inactive: [4] 102 % of control | [5] 112 % of control | [7] 103 % of control

COC12C(COC(N)=O)C3=C(C(=O)C(C)=C(NC(C)C)C3=O)N1CC1NC12 (stereo not given)
inactive: endpoint: mean survival time, dose: 1.5 mg/kg/injection, schedule: Q01DX001 (ip), vehicle: water 96 % of control (2×) and 102 % of control | endpoint: mean survival time, dose: 48.0 mg/kg/injection, schedule: Q01DX001 (ip), vehicle: water 87 % of control

c1ccc(COCCOCc2ccccc2)cc1
inactive: [1] 96 % of control | [6] 97 % of control | [8] 108 % of control

CCCCSCCN
inactive: [15] 94 % of control | [16] 94 % of control | [17] 102 % of control

CC(C)C(O)C(C)(C)c1nc2ccccc2[nH]1 (stereo not given)
inactive: [9] 100 % of control | [10] 94 % of control

NC(=O)C(O)(c1ccc(Br)cc1)C(Cl)Cl (stereo not given)
inactive: endpoint: mean survival time, dose: 28.5 mg/kg/injection, schedule: Q04DX002 (ip), vehicle: saline with Tween-80 97 % of control | [16] 107 % of control | endpoint: mean survival time, dose: 57.0 mg/kg/injection, schedule: Q04DX002 (ip), vehicle: saline with Tween-80 95 % of control | [17] 102 % of control | endpoint: mean survival time, dose: 114.0 mg/kg/injection, schedule: Q04DX002 (ip), vehicle: saline with Tween-80 98 % of control

CC(=O)ON1C(=O)C2C3C=CC(O3)C2C1=O (stereo not given)
inactive: endpoint: mean survival time, dose: 12.5 mg/kg/injection, schedule: Q01DX009 (ip), vehicle: water 100 % of control | endpoint: mean survival time, dose: 25.0 mg/kg/injection, schedule: Q01DX009 (ip), vehicle: water 91 % of control | endpoint: mean survival time, dose: 50.0 mg/kg/injection, schedule: Q01DX009 (ip), vehicle: water 96 % of control

Nc1nc(=O)n(CCCOc2ccc(Cl)cc2)cc1-c1ccccc1
inactive: [9] 98 % of control | [10] 101 % of control | [11] 88 % of control

CC1=C(C)C(COS(=O)(=O)c2ccc(C)cc2)C1COS(=O)(=O)c1ccc(C)cc1 (stereo not given)
inactive: [18] 97 % of control | [19] 97 % of control | [20] 95 % of control

C/C(=N\O)C(C)(O)C(C)(C)C (stereo not given)
inactive: [1] 90 % of control | [6] 98 % of control | [8] 93 % of control

Cc1ccc(C2=CC(=O)C(c3ccc(C)cc3C)=CC2=O)c(C)c1
inactive: [9] 92 % of control | [17] 86 % of control | [10] 91 % of control | [21] 93 % of control | [11] 94 % of control | [22] 101 % of control

CCOP(=O)(NCc1ccco1)OCC
inactive: endpoint: mean survival time, dose: 50.0 mg/kg/injection, schedule: Q01DX001 (ip), vehicle: carboxymethylcellulose (CMC) 106 % of control | endpoint: mean survival time, dose: 100.0 mg/kg/injection, schedule: Q01DX001 (ip), vehicle: carboxymethylcellulose (CMC) 112 % of control

CC1(C)OC1CS(=O)c1ccccc1 (stereo not given)
inactive: endpoint: mean survival time, dose: 12.5 mg/kg/injection, schedule: Q01DX009 (ip), vehicle: saline with Tween-80 95 % of control | endpoint: mean survival time, dose: 12.5 mg/kg/injection, schedule: Q01DX009 (ip), vehicle: saline 98 % of control | endpoint: mean survival time, dose: 25.0 mg/kg/injection, schedule: Q01DX009 (ip), vehicle: saline with Tween-80 98 % of control | endpoint: mean survival time, dose: 25.0 mg/kg/injection, schedule: Q01DX009 (ip), vehicle: saline 93 % of control | endpoint: mean survival time, dose: 50.0 mg/kg/injection, schedule: Q01DX009 (ip), vehicle: saline with Tween-80 95 % of control | [23] 101 % of control | [4] 95 % of control | [2] 95 % of control | [5] 98 % of control | [3] 105 % of control | [7] 93 % of control | [24] 98 % of control

CC1CCCC(C)N1c1ccc(NC(=O)c2ccc(C(=O)Nc3ccc(N4C(C)CCCC4C)cc3)cc2)cc1 (stereo not given)
inactive: [12] 86 % of control

C=CS(=O)(=O)c1ccc([N+](=O)[O-])cc1
inactive: [15] 88 % of control

CC(=O)OCC1CCCN1C(C)=O (stereo not given)
inactive: [12] 97 % of control | [13] 97 % of control | [14] 97 % of control

Nc1cccc(CCCCc2ccc(Cl)c(S(=O)(=O)F)c2)c1
inactive: [4] 94 % of control | [1] 106 % of control | [5] 97 % of control | [6] 106 % of control | [8] 108 % of control

CC(O)C(=O)O.CCCCOC(=O)CC(O)(CC(=O)OCCCC)C(=O)OCCCC.[Cl-].[Cl-].[NH2-].[NH2-].[Pt+4]
inactive: endpoint: mean survival time, dose: 3.13 mg/kg/injection, schedule: Q04DX003 (ip), vehicle: Klucel (hydroxypropylcellulose) (HPC) 104 % of control and 108 % of control and 105 % of control | endpoint: mean survival time, dose: 6.25 mg/kg/injection, schedule: Q04DX003 (ip), vehicle: Klucel (hydroxypropylcellulose) (HPC) 108 % of control and 111 % of control and 98 % of control | endpoint: mean survival time, dose: 12.5 mg/kg/injection, schedule: Q04DX003 (ip), vehicle: Klucel (hydroxypropylcellulose) (HPC) 109 % of control [middle of 4 runs] | endpoint: mean survival time, dose: 25.0 mg/kg/injection, schedule: Q04DX003 (ip), vehicle: Klucel (hydroxypropylcellulose) (HPC) 96 % of control and 113 % of control and 104 % of control | endpoint: mean survival time, dose: 100.0 mg/kg/injection, schedule: Q04DX003 (ip), vehicle: Klucel (hydroxypropylcellulose) (HPC) 95 % of control | endpoint: mean survival time, dose: 200.0 mg/kg/injection, schedule: Q04DX003 (ip), vehicle: Klucel (hydroxypropylcellulose) (HPC) 113 % of control

CCC(=O)c1ccc(Cc2ccc(C(=O)CC)cc2)cc1
inactive: [23] 87 % of control | [2] 92 % of control | [3] 98 % of control | [24] 93 % of control

CCCCNP(=S)(NCCCC)NCCCC
inactive: [17] 94 % of control | [21] 94 % of control | [22] 98 % of control

O=C(OCCOCCOC(=O)N1CCOCC1)N1CCOCC1
inactive: [18] 100 % of control | [19] 102 % of control | [20] 96 % of control
